Data taken from patent US9737504B2, “Dihydroorotic and acid dehydrogenase inhibitor” (NAI INC., priority 2012, dated 2017).
Read-outs that look alike come from different tables or passages of the source.

How the values were obtained:
KM-12 = experiment: JFCR39 cancer cell growth inhibition test, KM-12; type: cell-based; settings: Homo sapiens, KM12; KM-12, Co (Colon)
L0X-IMVI = experiment: JFCR39 cancer cell growth inhibition test, L0X-IMVI; type: cell-based; settings: Homo sapiens, Me (Melanoma)
NCI-H23 = experiment: JFCR39 cancer cell growth inhibition test, NCI-H23; type: cell-based; settings: Homo sapiens; NCI-H23, Lu (Lung)
HBC-4 = experiment: JFCR39 cancer cell growth inhibition test, HBC-4; type: cell-based; settings: Homo sapiens, HBC4; HBC-4, Br (Breast)
OVCAR-4 = experiment: JFCR39 cancer cell growth inhibition test, OVCAR-4; type: cell-based; settings: Homo sapiens; OVCAR-4, Ov (Ovarian)
SF-268 = experiment: JFCR39 cancer cell growth inhibition test, SF-268; type: cell-based; settings: Homo sapiens; SF-268, CNS (Central Nervous Systems)
A549 = experiment: JFCR39 cancer cell growth inhibition test, A549; type: cell-based; settings: Homo sapiens; A549, Lu (Lung)
MKN28 = experiment: JFCR39 cancer cell growth inhibition test, MKN28; type: cell-based; settings: Homo sapiens, MKN-28; MKN28, St (Stomac)
MKN45 = experiment: JFCR39 cancer cell growth inhibition test, MKN45; type: cell-based; settings: Homo sapiens, MKN-45; MKN45, St (Stomac)
SK-OV-3 = experiment: JFCR39 cancer cell growth inhibition test, SK-OV-3; type: cell-based; settings: Homo sapiens; SK-OV-3, Ov (Ovarian)
HBC-5 = experiment: JFCR39 cancer cell growth inhibition test, HBC-5; type: cell-based; settings: Homo sapiens, HBC5; HBC-5, Br (Breast)
BSY-1 = experiment: JFCR39 cancer cell growth inhibition test, BSY-1; type: cell-based; settings: Homo sapiens; BSY-1, Br (Breast)
SF-295 = experiment: JFCR39 cancer cell growth inhibition test, SF-295; type: cell-based; settings: Homo sapiens; SF-295, CNS (Central Nervous Systems)
SNB-78 = experiment: JFCR39 cancer cell growth inhibition test, SNB-78; type: cell-based; settings: Homo sapiens; SNB-78, CNS (Central Nervous Systems)
U251 = experiment: JFCR39 cancer cell growth inhibition test, U251; type: cell-based; settings: Homo sapiens, U-251; U251, CNS (Central Nervous Systems)
[1] = test system: Panc-1 cells (human pancreatic cells); experiment: Inhibitory effect on Panc-1 cells, control vs hypoxic and subnutritional conditions; type: cell-based; settings: for IC50: Homo sapiens
Description: (§1) For these reasons, cells of colorectal and pancreatic cancers, each being regarded as intractable, were used to test the inhibitory effect of compounds under hypoxic and subnutritional conditions. Moreover, the same test was also performed on normal skin cells.
The cells used were two types of cancer cells, i.e., DLD-1 cells (human colorectal cancer cells) and Panc-1 cells (human pancreatic cells), as well as HDF cells (human dermal fibroblast cells). Culture conditions were set as follows: 21% oxygen with glucose and […] (10% FBS) for the control group, and 1% oxygen without glucose and […] (10% FBS) for the hypoxic and subnutritional group. The results obtained are shown in Tables 3, 4 and 5, as well as FIGS. 1, 2 and 3.

DMS114 = experiment: JFCR39 cancer cell growth inhibition test, DMS114; type: cell-based; settings: Homo sapiens, DMS-114; DMS114, Lu (Lung)
MKN74 = experiment: JFCR39 cancer cell growth inhibition test, MKN74; type: cell-based; settings: Homo sapiens, MKN-74; MKN74, St (Stomac)
RXF-631L = experiment: JFCR39 cancer cell growth inhibition test, RXF-631L; type: cell-based; settings: Homo sapiens, Re (Renal)
HCT-15 = experiment: JFCR39 cancer cell growth inhibition test, HCT-15; type: cell-based; settings: Homo sapiens; HCT-15, Co (Colon)
MKN7 = experiment: JFCR39 cancer cell growth inhibition test, MKN7; type: cell-based; settings: Homo sapiens, MKN-7; MKN7, St (Stomac)
human DHOD = human DHOD (Homo sapiens, UniProt Q02127); experiment: Measurement of DHOD inhibitory activity (DCIP reduction, end point assay); type: biochemical; settings: read-out: DHOD inhibition rate (%) 100 nM; 100 nM compound
NCI-H226 = experiment: JFCR39 cancer cell growth inhibition test, NCI-H226; type: cell-based; settings: Homo sapiens; NCI-H226, Lu (Lung)
OVCAR-3 = experiment: JFCR39 cancer cell growth inhibition test, OVCAR-3; type: cell-based; settings: Homo sapiens; OVCAR-3, Ov (Ovarian)
MCF-7 = experiment: JFCR39 cancer cell growth inhibition test, MCF-7; type: cell-based; settings: Homo sapiens, MCF7; MCF-7, Br (Breast)
St-4 = experiment: JFCR39 cancer cell growth inhibition test, St-4; type: cell-based; settings: Homo sapiens; St-4, St (Stomac)
HCC2998 = experiment: JFCR39 cancer cell growth inhibition test, HCC2998; type: cell-based; settings: Homo sapiens, HCC 2998; HCC2998, Co (Colon)
ACHN = experiment: JFCR39 cancer cell growth inhibition test, ACHN; type: cell-based; settings: Homo sapiens, Re (Renal)
SF-539 = experiment: JFCR39 cancer cell growth inhibition test, SF-539; type: cell-based; settings: Homo sapiens; SF-539, CNS (Central Nervous Systems)
MDA-MB-231 = experiment: JFCR39 cancer cell growth inhibition test, MDA-MB-231; type: cell-based; settings: Homo sapiens; MDA-MB-231, Br (Breast)
SNB-75 = experiment: JFCR39 cancer cell growth inhibition test, SNB-75; type: cell-based; settings: Homo sapiens; SNB-75, CNS (Central Nervous Systems)
PC-3 = experiment: JFCR39 cancer cell growth inhibition test, PC-3; type: cell-based; settings: Homo sapiens; PC-3, xPg (Prostate)
MKN1 = experiment: JFCR39 cancer cell growth inhibition test, MKN1; type: cell-based; settings: Homo sapiens, MKN-1; MKN1, St (Stomac)
NCI-H460 = experiment: JFCR39 cancer cell growth inhibition test, NCI-H460; type: cell-based; settings: Homo sapiens; NCI-H460, Lu (Lung)
[2] = test system: HDF cells (human dermal fibroblast cells); experiment: Inhibitory effect on HDF cells, control vs hypoxic and subnutritional conditions; type: cell-based; settings: for IC50: Homo sapiens, HDF normal skin cells
Description: as §1
The cells used were two types of cancer cells, i.e., DLD-1 cells (human colorectal cancer cells) and Panc-1 cells (human pancreatic cells), as well as HDF cells (human dermal fibroblast cells).

human DHOD, sequence (Q02127 whole entry): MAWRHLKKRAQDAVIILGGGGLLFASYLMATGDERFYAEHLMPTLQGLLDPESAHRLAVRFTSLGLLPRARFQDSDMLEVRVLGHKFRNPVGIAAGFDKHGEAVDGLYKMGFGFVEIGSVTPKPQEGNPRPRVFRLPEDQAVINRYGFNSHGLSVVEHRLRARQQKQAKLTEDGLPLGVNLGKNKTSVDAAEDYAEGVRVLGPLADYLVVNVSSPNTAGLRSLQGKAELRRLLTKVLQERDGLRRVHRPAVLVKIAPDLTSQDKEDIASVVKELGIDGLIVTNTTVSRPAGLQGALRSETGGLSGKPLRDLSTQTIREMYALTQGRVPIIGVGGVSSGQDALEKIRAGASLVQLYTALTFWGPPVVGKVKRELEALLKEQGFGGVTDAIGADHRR

Q: Which results are given for `C/C(=C\Cc1c(O)c(Cl)c(C)c(C=O)c1O)CC/C=C(\C)[C@@H]1CC(=O)C(C)(C)O1` (racemic) [Ascofuranone, dl-5-Chloro-2,4-dihydroxy-6-methyl-3-[(2E,6E)-3-methyl-7-(3,3-dimethyl-4-oxo-2-oxacyclopentyl)-2,6-octadienyl]benzaldehyde]?
A: GI50 (KM-12): 9.3 µM; GI50 (L0X-IMVI): 2.8 µM; GI50 (NCI-H23): 15 µM; GI50 (HBC-4): 9.1 µM; GI50 (OVCAR-4): 5.9 µM; GI50 (SF-268): 7 µM; GI50 (A549): 7.6 µM; GI50 (MKN28): 9.7 µM; GI50 (MKN45): 10 µM; GI50 (SK-OV-3): 13 µM; GI50 (HBC-5): 28 µM; GI50 (BSY-1): 16 µM; GI50 (SF-295): 5.3 µM; GI50 (SNB-78): 23 µM; GI50 (U251): 1.5 µM; IC50 ([1]; read-out: IC50 [μM] 1% O2 glc(−)gln(−), Panc-1, 1% O2 glc(−)gln(−)): 1.4 µM; IC50 ([1]; Panc-1, 21% O2 glc(+)gln(+), read-out: IC50 [μM] 21% O2 glc(+)gln(+)): > 100 µM; Selectivity = 21% glc(+)gln(+) IC50/1% glc(−)gln(−) IC50 ([1]; Panc-1): >71; GI50 (DMS114): 19 µM; GI50 (MKN74): 13 µM; GI50 (RXF-631L): 12 µM; GI50 (HCT-15): 1.3 µM; GI50 (MKN7): 15 µM; inhibition at 0.1 µM (human DHOD): 95%; GI50 (NCI-H226): 15 µM; GI50 (OVCAR-3): 8 µM; GI50 (MCF-7): 9 µM; GI50 (St-4): 14 µM; GI50 (HCC2998): 17 µM; GI50 (ACHN): 10 µM; GI50 (SF-539): 1.7 µM; GI50 (MDA-MB-231): 7.4 µM; GI50 (SNB-75): 23 µM; GI50 (PC-3): 13 µM; GI50 (MKN1): 14 µM; GI50 (NCI-H460): 2 µM; Selectivity = 21% glc(+)gln(+) IC50/1% glc(−)gln(−) IC50 ([2]; HDF): >63; IC50 ([2]; read-out: IC50 [μM] 1% O2 glc(−)gln(−), 1% O2 glc(−)gln(−)): 1.6 µM; IC50 ([2]; 21% O2 glc(+)gln(+), read-out: IC50 [μM] 21% O2 glc(+)gln(+)): > 100 µM
